Test results reported in patent publication US9957271B2, “Substituted bicyclic aza-heterocycles and analogues as sirtuin modulators” (GlaxoSmithKline, LLC, priority 2012, dated 2018).

How the values were obtained:
SIRT1 [1] = biological target: T1, SIRT1 (Homo sapiens, UniProt Q96EB6); assay: TAMRA based mass spectrometry assay of SIRT1 activity; assay type: biochemical; settings: for Emax: read-out: TAMRA % Fold Act
T1 sequence (Q96EB6 1-747): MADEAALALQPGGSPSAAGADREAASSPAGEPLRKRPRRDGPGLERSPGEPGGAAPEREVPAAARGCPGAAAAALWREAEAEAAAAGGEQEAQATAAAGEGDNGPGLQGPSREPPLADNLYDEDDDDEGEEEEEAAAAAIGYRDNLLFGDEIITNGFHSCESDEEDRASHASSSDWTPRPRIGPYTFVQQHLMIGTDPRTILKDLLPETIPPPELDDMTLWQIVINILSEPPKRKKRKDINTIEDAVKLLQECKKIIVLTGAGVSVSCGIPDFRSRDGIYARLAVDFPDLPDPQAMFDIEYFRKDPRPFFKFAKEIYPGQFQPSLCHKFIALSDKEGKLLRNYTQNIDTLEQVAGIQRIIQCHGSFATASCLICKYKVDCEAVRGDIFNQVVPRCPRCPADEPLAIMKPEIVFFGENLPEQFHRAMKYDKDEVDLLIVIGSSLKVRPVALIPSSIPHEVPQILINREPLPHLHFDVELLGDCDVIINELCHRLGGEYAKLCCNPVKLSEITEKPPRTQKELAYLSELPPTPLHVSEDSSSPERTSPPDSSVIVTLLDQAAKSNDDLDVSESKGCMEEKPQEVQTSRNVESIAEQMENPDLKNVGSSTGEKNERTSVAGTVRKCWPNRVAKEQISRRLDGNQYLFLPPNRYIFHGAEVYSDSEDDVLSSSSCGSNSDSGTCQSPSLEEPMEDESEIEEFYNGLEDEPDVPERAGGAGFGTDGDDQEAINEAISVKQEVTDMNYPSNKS
Method in brief: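 Recombinant N-terminal His-tagged human SIRT1 (10 nM, E. coli) incubated 25 min at 25 °C with 0.5 μM 5TMR-labelled p53-derived acetyl-peptide and 120 μM βNAD+ in Tris-acetate pH 8 buffer with DTT and 0.05% BSA, compound at varying concentrations. Stopped with formic acid; deacetylated peptide or OAADPR measured by mass spectrometry relative to DMSO controls.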

SIRT1 [2] = biological target: T1, SIRT1; assay: Trp mass spectrometry assay of SIRT1 activity; assay type: biochemical; settings: for Emax: read-out: Trp % Fold Act
Method in brief: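 His-tagged SIRT1 expressed in E. coli BL21(DE3), 10 nM, incubated 25 min at 25° C. with 0.5 μM Ac-RHKK(Ac)W-NH2 peptide and 120 μM βNAD+ in 50 mM HEPES pH 7.5, […], 1 mM DTT, 0.05% BSA; formic acid stop. OAADPR or deacetylated peptide measured by mass spectrometry; EC1.5 and percent maximum activation versus DMSO control.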

[3] = TAMRA assay, concentration giving 150% activation of SIRT1
[4] = TAMRA assay, percent maximum fold activation
[5] = Trp assay, concentration giving 150% activation of SIRT1
[6] = Trp assay, percent maximum fold activation
[7] = concentration of test compound giving 150% activation of SIRT1, TAMRA peptide substrate
[8] = percent maximum fold activation of SIRT1, TAMRA peptide substrate
[9] = concentration of test compound giving 150% activation of SIRT1, Trp peptide substrate
[10] = percent maximum fold activation of SIRT1, Trp peptide substrate
[11] = TAMRA peptide substrate, concentration giving 150% activation of SIRT1
[12] = TAMRA peptide substrate, percent maximum fold activation
[13] = Trp peptide substrate, concentration giving 150% activation of SIRT1
[14] = Trp peptide substrate, percent maximum fold activation

SMILES	TAMRA EC1.5 (μM) (SIRT1 [1]; [3])	Emax (SIRT1 [1]; [4])	Trp EC1.5 (μM) (SIRT1 [2]; [5])	Emax (SIRT1 [2]; [6])	further results
Cc1cc(C)nc(NC(=O)c2c(C)nc3ccc(-c4cccc(OC[C@H](O)CO)c4)nn23)c1 [Compound 791]	A (EC1.5<1 μM)	≥ 350%	B (EC1.5 1-25 μM)	< 350%	–
O=C(Nc1cccc(N2CCOCC2)n1)c1cnc2ccc(-c3ccccc3Cl)nn12 [Compound 95]	–	–	–	–	TAMRA EC1.5 (μM) (SIRT1 [1]; [7]): A (EC1.5<1 μM); Emax (SIRT1 [1]; [8]): ≥ 350%; Trp EC1.5 (μM) (SIRT1 [2]; [9]): A (EC1.5<1 μM); Emax (SIRT1 [2]; [10]): < 350%
O=C(Nc1cnc2ccc(-c3ccccc3F)nn12)c1ccccn1 [Compound 279]	B (EC1.5 1-25 μM)	< 350%	C (EC1.5>25 μM)	< 350%	–
Cc1cc(NC(=O)c2cnc3ccc(-c4ccccc4OC(F)(F)F)nn23)nc(C)n1 [Compound 398]	–	–	–	–	TAMRA EC1.5 (SIRT1 [1]; [11]): A (EC1.5<1 μM); Emax (SIRT1 [1]; [12]): ≥ 350%; Trp EC1.5 (SIRT1 [2]; [13]): B (EC1.5 1-25 μM); Emax (SIRT1 [2]; [14]): < 350%
O=C(Nc1cccc(CN2CCOCC2)n1)c1cnc2ccc(-c3cccc(C(F)(F)F)c3)nn12 [Compound 5]	–	–	–	–	TAMRA EC1.5 (μM) (SIRT1 [1]; [7]): A (EC1.5<1 μM); Emax (SIRT1 [1]; [8]): ≥ 350%; Trp EC1.5 (μM) (SIRT1 [2]; [9]): B (EC1.5 1-25 μM); Emax (SIRT1 [2]; [10]): < 350%
Cc1nc2ccc(-c3ccccc3OC(F)(F)F)nn2c1C(=O)Nc1ccc(F)cn1 [Compound 472]	–	–	–	–	TAMRA EC1.5 (SIRT1 [1]; [11]): B (EC1.5 1-25 μM); Emax (SIRT1 [1]; [12]): < 350%; Trp EC1.5 (SIRT1 [2]; [13]): C (EC1.5>25 μM); Emax (SIRT1 [2]; [14]): < 350%
Cc1cc(C)nc(NC(=O)c2cnc3ccc(N4CC[C@H](F)C4)nn23)c1 [Compound 490]	–	–	–	–	TAMRA EC1.5 (SIRT1 [1]; [11]): B (EC1.5 1-25 μM); Emax (SIRT1 [1]; [12]): ≥ 350%; Trp EC1.5 (SIRT1 [2]; [13]): B (EC1.5 1-25 μM); Emax (SIRT1 [2]; [14]): < 350%
Cc1nn2ccc(-c3ccccc3C(F)(F)F)nc2c1C(=O)Nc1cccnc1 [Compound 549]	–	–	–	–	TAMRA EC1.5 (SIRT1 [1]; [11]): A (EC1.5<1 μM); Emax (SIRT1 [1]; [12]): ≥ 350%; Trp EC1.5 (SIRT1 [2]; [13]): B (EC1.5 1-25 μM); Emax (SIRT1 [2]; [14]): ≥ 350%
Cc1cc(NC(=O)c2cnc3ccc(-c4ccccc4Cl)nn23)cc(C)n1 [Compound 260]	A (EC1.5<1 μM)	≥ 350%	B (EC1.5 1-25 μM)	< 350%	–
Cc1nc2c(C)cc(-c3ccccc3OC(F)(F)F)nn2c1C(=O)Nc1ccncn1 [Compound 478]	–	–	–	–	TAMRA EC1.5 (SIRT1 [1]; [11]): A (EC1.5<1 μM); Emax (SIRT1 [1]; [12]): ≥ 350%; Trp EC1.5 (SIRT1 [2]; [13]): A (EC1.5<1 μM); Emax (SIRT1 [2]; [14]): ≥ 350%
Cc1cccnc1NC(=O)c1c(C)nn2ccc(-c3ccccc3C(F)(F)F)nc12 [Compound 722, 2-methyl-N-(3-methylpyridin-2-yl)-5-(2-(trifluoromethyl)phenyl)pyrazolo[1,5-a]pyrimidine-3-carboxamide]	B (EC1.5 1-25 μM)	< 350%	A (EC1.5<1 μM)	≥ 350%	–
Cn1ccc(NC(=O)c2cnc3ccc(-c4ccccc4C(F)(F)F)nn23)n1 [Compound 112]	–	–	–	–	TAMRA EC1.5 (μM) (SIRT1 [1]; [7]): B (EC1.5 1-25 μM); Emax (SIRT1 [1]; [8]): ≥ 350%; Trp EC1.5 (μM) (SIRT1 [2]; [9]): B (EC1.5 1-25 μM); Emax (SIRT1 [2]; [10]): < 350%
Cc1nc2ccc(-c3ccccc3Cl)nn2c1NC(=O)c1cccc(OCC(O)CO)n1 (centres unmarked) [Compound 357]	C (EC1.5>25 μM)	< 350%	C (EC1.5>25 μM)	< 350%	–
Cc1cc(NC(=O)c2c(C)nc3c(C)cc(-c4ccccc4C(F)(F)F)nn23)nc(C)n1 [Compound 475]	–	–	–	–	TAMRA EC1.5 (SIRT1 [1]; [11]): A (EC1.5<1 μM); Emax (SIRT1 [1]; [12]): ≥ 350%; Trp EC1.5 (SIRT1 [2]; [13]): B (EC1.5 1-25 μM); Emax (SIRT1 [2]; [14]): ≥ 350%
CN(C)c1cccc(NC(=O)c2cnc3ccc(-c4ccccc4C(F)(F)F)nn23)n1 [Compound 104]	–	–	–	–	TAMRA EC1.5 (μM) (SIRT1 [1]; [7]): A (EC1.5<1 μM); Emax (SIRT1 [1]; [8]): ≥ 350%; Trp EC1.5 (μM) (SIRT1 [2]; [9]): B (EC1.5 1-25 μM); Emax (SIRT1 [2]; [10]): < 350%
O=C(Nc1ncccn1)c1cnn2ccc(-c3ccccc3C(F)(F)F)nc12 [Compound 266, N-(pyrimidin-2-yl)-5-(2-(trifluoromethyl)phenyl)pyrazolo[1,5-a]pyrimidine-3-carboxamide]	B (EC1.5 1-25 μM)	≥ 350%	B (EC1.5 1-25 μM)	< 350%	–
Cc1nc2c(C)cc(-c3ccccc3C(F)(F)F)nn2c1C(=O)Nc1cccnn1 [Compound 428, 2,8-dimethyl-N-(pyridazin-3-yl)-6-(2-(trifluoromethyl)phenyl)imidazo[1,2-b]pyridazine-3-carboxamide]	–	–	–	–	TAMRA EC1.5 (SIRT1 [1]; [11]): A (EC1.5<1 μM); Emax (SIRT1 [1]; [12]): ≥ 350%; Trp EC1.5 (SIRT1 [2]; [13]): A (EC1.5<1 μM); Emax (SIRT1 [2]; [14]): ≥ 350%
Cc1ncccc1NC(=O)c1c(C)nn2ccc(-c3ccccc3Br)nc12 [Compound 824]	B (EC1.5 1-25 μM)	≥ 350%	A (EC1.5<1 μM)	≥ 350%	–
O=C(Nc1ccccn1)c1cnc2ccc(-c3c(F)cccc3F)nn12 [Compound 167]	–	–	–	–	TAMRA EC1.5 (μM) (SIRT1 [1]; [7]): C (EC1.5>25 μM); Emax (SIRT1 [1]; [8]): < 350%; Trp EC1.5 (μM) (SIRT1 [2]; [9]): C (EC1.5>25 μM); Emax (SIRT1 [2]; [10]): < 350%

Further lines, with some results ahead:

TAMRA EC1.5 (μM) (SIRT1 [1]; [3])	Emax (SIRT1 [1]; [4])	Trp EC1.5 (μM) (SIRT1 [2]; [5])	Emax (SIRT1 [2]; [6])	SMILES	further results
A (EC1.5<1 μM)	< 350%	C (EC1.5>25 μM)	< 350%	Cc1ccc(NC(=O)c2c(C)nc3ccc(-c4ccccc4Cl)nn23)nn1 [Compound 742]	–
B (EC1.5 1-25 μM)	≥ 350%	B (EC1.5 1-25 μM)	< 350%	O=C(Nc1ccc(CN2CCCC2)cn1)c1cnc2ccc(-c3ccccc3C(F)(F)F)nn12 [Compound 248]	–
A (EC1.5<1 μM)	≥ 350%	B (EC1.5 1-25 μM)	< 350%	Cc1ccc(NC(=O)c2cnn3ccc(-c4ccccc4OC(F)(F)F)nc23)nn1 [Compound 633]	–
A (EC1.5<1 μM)	≥ 350%	B (EC1.5 1-25 μM)	< 350%	COc1cc(OC)nc(NC(=O)c2cnc3ccc(-c4ccccc4C(F)(F)F)nn23)n1 [Compound 198]	–
B (EC1.5 1-25 μM)	< 350%	A (EC1.5<1 μM)	< 350%	Cc1ccc(NC(=O)c2c(C)nc3ccc(-c4cccc(F)c4)nn23)nn1 [Compound 716]	–
B (EC1.5 1-25 μM)	≥ 350%	B (EC1.5 1-25 μM)	< 350%	Cc1nc(C(=O)Nc2cnn3ccc(-c4ccccc4OC(F)(F)F)nc23)cs1 [Compound 752]	–
B (EC1.5 1-25 μM)	< 350%	B (EC1.5 1-25 μM)	< 350%	Cc1cc(NC(=O)c2cnc3ccc(-c4ccccc4F)nn23)ccn1 [Compound 242]	–
